# Active and inactive are the calls of the source. No cut-off for these calls is given here.
# System: PC-3
# Assay: Cytotoxicity against human PC3 cells after 3 days by MTT assay
# Assay type: functional, cell-based
# Conditions: PC-3, 72 h
row,SMILES,IC50 [µM]
1,Cc1nc2c(-c3ccc(Br)cc3)nc3ccccc3c2c(=O)n1-c1ccccc1Br,> 20
2,Cc1nc2c(-c3ccc(Cl)cc3)nc3ccccc3c2c(=O)n1-c1cccc(Br)c1,1.4
3,Cc1nc2c(-c3ccc(Br)cc3)nc3ccccc3c2c(=O)n1-c1ccc(F)cc1,5.5
4,COc1ccc(-n2c(C)nc3c(-c4ccc(Cl)cc4)nc4ccccc4c3c2=O)cc1,1.6
5,Cc1nc2c(-c3ccc(Br)cc3)nc3ccccc3c2c(=O)n1-c1ccccc1Cl,> 28
6,Cc1nc2c(-c3ccc(Cl)cc3)nc3ccccc3c2c(=O)n1-c1ccc(F)cc1,4
7,COc1ccccc1-n1c(C)nc2c(-c3ccc(Cl)cc3)nc3ccccc3c2c1=O,10.5
8,Cc1ccccc1-n1c(C)nc2c(-c3ccc(Cl)cc3)nc3ccccc3c2c1=O,> 38
9,Cc1ccc(-n2c(C)nc3c(-c4ccc(Cl)cc4)nc4ccccc4c3c2=O)cc1,> 32
10,Cc1ccc(-n2c(C)nc3c(-c4ccc(Br)cc4)nc4ccccc4c3c2=O)cc1,> 21.3
11,Cc1nc2c(-c3ccc(Cl)cc3)nc3ccccc3c2c(=O)n1-c1ccccc1Br,> 42
12,Cc1nc2c(-c3ccc(Br)cc3)nc3ccccc3c2c(=O)n1-c1cccc(Br)c1,> 10
13,Cc1nc2c(-c3ccc(Br)cc3)nc3ccccc3c2c(=O)n1-c1ccccc1,2.2
14,COc1ccc(-n2c(C)nc3c(-c4ccc(Br)cc4)nc4ccccc4c3c2=O)cc1,2.5
15,Cc1ccccc1-n1c(C)nc2c(-c3ccc(Br)cc3)nc3ccccc3c2c1=O,> 30
16,Cc1nc2c(-c3ccc(Cl)cc3)nc3ccccc3c2c(=O)n1-c1ccc(Cl)cc1,> 28
17,COc1ccccc1-n1c(C)nc2c(-c3ccc(Br)cc3)nc3ccccc3c2c1=O,6.7
18,Cc1nc2c(-c3ccc(Cl)cc3)nc3ccccc3c2c(=O)n1-c1cccc(Cl)c1,> 26
19,COc1cc2c(c(OC)c1OC)-c1ccc(OC)c(=O)cc1[C@@H](NC(C)=O)CC2 [COLCHICINE],0.018
20,Cc1nc2c(-c3ccc(Cl)cc3)nc3ccccc3c2c(=O)n1-c1ccccc1,3.2
21,Cc1nc2c(-c3ccc(Br)cc3)nc3ccccc3c2c(=O)n1-c1ccc(Cl)cc1,1.9
22,Cc1nc2c(-c3ccc(Br)cc3)nc3ccccc3c2c(=O)n1-c1ccc(Br)cc1,3.3
23,Cc1nc2c(-c3ccc(Cl)cc3)nc3ccccc3c2c(=O)n1-c1ccc(Br)cc1,2.5
24,Cc1nc2c(-c3ccc(Br)cc3)nc3ccccc3c2c(=O)n1-c1cccc(Cl)c1,> 25
25,Cc1nc2c(-c3ccc(Cl)cc3)nc3ccccc3c2c(=O)n1-c1ccccc1Cl,2

# Organism: Bos taurus
# Assay: Inhibition of bovine brain tubulin polymerization at 40 uM absence of microtubule associated proteins
# Conditions: not given
row,SMILES,Activity
1,COc1ccc(-n2c(C)nc3c(-c4ccc(Cl)cc4)nc4ccccc4c3c2=O)cc1,inactive

# Organism: Bos taurus
# Assay: Inhibition of bovine brain tubulin polymerization at 27 uM in absence of microtubule associated proteins
# Conditions: not given
row,SMILES,Activity
1,Cc1nc2c(-c3ccc(Cl)cc3)nc3ccccc3c2c(=O)n1-c1cccc(Br)c1,inactive

# Organism: Bos taurus
# Assay: Inhibition of bovine brain tubulin polymerization at 27 uM in presence of microtubule associated proteins
# Conditions: not given
row,SMILES,Activity
1,Cc1nc2c(-c3ccc(Cl)cc3)nc3ccccc3c2c(=O)n1-c1cccc(Br)c1,inactive

# Organism: Bos taurus
# Assay: Inhibition of bovine brain tubulin polymerization at 40 uM in presence of microtubule associated proteins
# Conditions: not given
row,SMILES,Activity
1,COc1ccc(-n2c(C)nc3c(-c4ccc(Cl)cc4)nc4ccccc4c3c2=O)cc1,inactive
